Where two headings read alike, the source gives them in different places.
Legend:
[1] = target: T1, RIG-I (Homo sapiens, UniProt O95786); test: IRF3-luciferase assay in HEK 293 cells transfected with RIGI; format: cell-based; details: 100 or 500 nM; 8 h or 16 h incubation
T1 construct: expressed in transfected cells; host or cells: HEK 293
T1 sequence (O95786 1-925): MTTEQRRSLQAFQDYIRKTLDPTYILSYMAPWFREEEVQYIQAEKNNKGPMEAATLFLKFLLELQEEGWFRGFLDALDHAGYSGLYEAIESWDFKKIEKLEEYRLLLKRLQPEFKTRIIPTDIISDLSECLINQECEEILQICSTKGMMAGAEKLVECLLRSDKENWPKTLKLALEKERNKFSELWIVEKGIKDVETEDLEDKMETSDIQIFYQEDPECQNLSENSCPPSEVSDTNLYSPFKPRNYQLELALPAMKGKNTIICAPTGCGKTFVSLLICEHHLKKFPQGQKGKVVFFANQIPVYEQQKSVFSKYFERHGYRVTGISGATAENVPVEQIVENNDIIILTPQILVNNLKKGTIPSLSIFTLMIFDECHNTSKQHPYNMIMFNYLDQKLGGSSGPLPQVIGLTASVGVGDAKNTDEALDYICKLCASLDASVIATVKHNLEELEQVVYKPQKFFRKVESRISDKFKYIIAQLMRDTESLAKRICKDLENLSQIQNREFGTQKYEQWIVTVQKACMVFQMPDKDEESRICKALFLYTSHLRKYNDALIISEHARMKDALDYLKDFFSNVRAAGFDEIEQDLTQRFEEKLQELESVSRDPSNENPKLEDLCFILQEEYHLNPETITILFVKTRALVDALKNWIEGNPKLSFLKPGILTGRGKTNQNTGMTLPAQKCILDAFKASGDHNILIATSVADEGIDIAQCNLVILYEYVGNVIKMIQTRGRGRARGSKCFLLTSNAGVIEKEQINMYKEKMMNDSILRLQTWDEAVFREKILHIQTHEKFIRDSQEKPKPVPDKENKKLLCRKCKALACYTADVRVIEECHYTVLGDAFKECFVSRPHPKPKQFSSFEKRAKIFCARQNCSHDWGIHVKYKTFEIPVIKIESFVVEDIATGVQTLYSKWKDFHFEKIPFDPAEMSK
Experimental: HEK 293 cells were transfected with RIGI, pcDNA and IRF3-luciferase. The cells were then incubated with SB 44 (100 or 500 nM). Following 8 h or 16 h incubation, Luciferase activity was measured as described previously. The Luciferase assay results are presented as mean±S.D. from three independent experiments.

[2] = Dose range-finding oral study in cynomolgus monkeys; format: in vivo; details: 500 mg/kg/day oral for 4 days
Experimental: The objective of this study was to determine a maximum tolerated dose (MTD) and a no observable adverse effect level (NOAEL) for the endpoints examined following daily oral gavage of SB 44 for 4 consecutive days to cynomolgus monkeys. Information from this study was used to design subsequent dose-ranging toxicity studies and determine the suitability of the proposed human dose.
SB 44 was administered orally to cynomolgus monkeys consecutively for 4 days at 500 mg/kg/day.

[3] = Bioreversibility of SB 44 in serum; format: in vitro ADME
Source text: Similar to the serum-mediated conversion of SB 44 to SB 40, in the case of microsomes liver esterases appear to be the major metabolizing enzymes involved in the hydrolytic conversion of SB 44 to SB 40. […] The facile bioconversion of SB 44 to SB 40 in liver and plasma is also consistent with broad substrate specificity of the ubiquitous esterase enzymes.

[4] = system: RIG-I and NOD2; format: cell-based; details: receptor-deficient cells, exogenous RIG-I and NOD2
[5] = system: M. tuberculosis; design: species or system C57Bl/6 mice; details: mouse, in vivo
[6] = liver microsomes
Experimental: SB 44 (10 μM) was incubated with a mix containing S9 fraction (pooled from human) (1 mg/ml), NADPH (1.3 mM) UDPGA (5 mM), Alamethicin (10 μg/ml) in 1 ml of 1×PBS buffer. […] The metabolite samples were evaluated by HPLC and LC/MS analysis.

[7] = system: C57Bl/6 mouse bone marrow derived macrophages; format: cell-based
[8] = system: PBMCs; format: cell-based
[9] = system: peripheral blood mononuclear cells (PBMCs); test: Multiplex assay for 28 cytokines in PBMCs; format: cell-based, human; details: up to 50 μM
[10] = system: bacterial tester strains; test: Bacterial mutation test (screening version, pre-incubation); details: up to 5000 μg/plate
Experimental: Study design: The test was performed on one occasion only. A subset of the standard tester strains (list strains) was used to evaluate the genotoxic potential of the test article.
The test article was formulated in dimethyl sulfoxide (DMSO) and tested at a maximum concentration of 5000 μg/plate (the standard limit dose for this assay) together with approximate half-log dilutions using the pre-incubation version of the bacterial mutation test. The absence of colonies on sterility check plates confirmed the absence of microbial contamination. The mean revertant colony counts for the vehicle controls were close to or within the laboratory historical control data. Appropriate positive control compounds (+/−S9 mix) induced increases in revertant colony numbers at least twice the concurrent vehicle control levels with the appropriate bacterial strain (1.5× for strain TA 100), confirming the sensitivity of the test system and activity of the S9 mix. […] No precipitation was observed.

[11] = human liver S9 fractions
Experimental: SB 44 (10 μM) was incubated with a mix containing S9 fraction (pooled from human) (1 mg/ml), NADPH (1.3 mM) UDPGA (5 mM), Alamethicin (10 μg/ml) in 1 ml of 1×PBS buffer. S-(5′-adenosyl)-L-methionine iodide (0.1 mM), adenosine 3′-phosphate 5′-phosphosulfate lithium salt hydrate (0.1 mM) and acetyl CoA (1 mM). The metabolite samples were evaluated by HPLC and LC/MS analysis.

[12] = system: Madin-Darby bovine kidney (MDBK); test: MTT cytotoxicity assay, MDBK cells; format: cell-based; details: 24-hour incubation
Source text: SDS was used as a positive cytotoxic control.

[13] = system: IL-1β; test: Mature IL-1β ELISA in mouse bone marrow derived primary macrophages; format: cell-based; details: alone or with MDP or BCG, caspase blockade with ZVAD-fmk
Experimental: C57Bl/6 mouse bone marrow derived primary macrophages were treated with SB 1A or SB 1B alone, MDP alone or in combination as indicated for 4 hrs. BCG was used for infection for 4 hrs and supernatants collected 18 hr later titrated for mature IL1β using ELISA. Macrophages were first treated with ZVAD-fmk (2 hrs) for caspase blockade followed by activation with SB 1A and SB 1B (4 hrs) and BCG infection (4 hrs). Cytokine was measured 18 hrs later.

## COC1C(OP(=O)(OCC2OC(n3cnc4c(N)ncnc43)CC2O)SCOC(=O)OC(C)C)C(CO)OC1n1ccc(=O)[nH]c1=O (mixture of isomers) [SB 44]
[1]
  IRF3 induction following activation of RIG-I: IRF3 induction following activation of RIG-I
[2]
  elevation of ALT: about 2 fold
  elevation of AST: about 6 fold
  tolerability: clinically well tolerated
[3]
  conversion rates of the individual isomers: almost equal rates
[4]
  enhancement of ISG-56 expression over that induced by PolyI-PolyC: 2 fold
[5]
  Mtb counts of lungs: reducing Mtb counts of lungs better than either BCG or MDP+BCG
  Mtb counts of spleens: better than BCG vaccine in reducing Mtb counts of spleens
  adjuvant efficacy with BCG vaccine against tuberculosis: better than muramyl dipeptide (MDP) as adjuvants
  anti-TB T cell function of mice: dramatic increase in anti-TB T cell function of mice
  memory precursor T cells (MPECs): induces better memory precursor T cells (MPECs) than BCG vaccine
  tetramer specific CD8 T cells: comparable levels of tetramer specific CD8 T cells
[6]
  minor metabolites: < 10%
  rate differences in conversion of Rp- and Sp-isomers: no significant rate differences
[6]; MS analysis
  desulfurized product: < 5%
[6]; up to eight hours
  conversion of prodrug to SB 40: stereospecific conversion to the dinucleotide Rp, Sp-SB 40
[7]
  antigen presentation (Antigen-85B) in macrophages: enhance antigen presentation in vitro
[8]
  IFN production in the presence of BCG: modest augmentation of IFN production
[9]
  cytokine induction in human PBMC cultures: did not cause cytokine induction
[10]
  toxicity to the bacteria (background lawn): non-toxic to the bacteria at the levels tested
[10]; absence or presence of S9 mix
  genotoxic activity (revertant colony counts): did not show any evidence of genotoxic activity
[11]
  conversion of prodrug to SB 40: stereospecific conversion of SB 44 to the dinucleotide SB 40
  phase II conjugative reactions: no apparent evidence of any phase II conjugative reactions
[11]; LC/MS
  desulfurized product corresponding to SB 40: < 5%
[12]
  CC50: > 1000 µM
[13]
  induction of mature IL-1β: induce IL-1β only in combination with either MDP or intact BCG bacilli

Source: patent US10391166B2, “Short oligonucleotides as vaccine adjuvants and therapeutic agents” (priority 2013, dated 2019)
